We go through seven molecules from ChEMBL document CHEMBL6153075, “Design, synthesis, and antitumor evaluation of triazolopyridine derivatives as novel inhibitors for BRD4” (Eur J Med Chem, 2025).

The test system of series [1] is MV4-11. Briefly: Antiproliferative activity against human MV4-11 cells.
Series [2] can be described thus: Metabolic stability in human liver microsomes assessed as half life preincubated for 5 mins followed by NADPH addition measured for 5 to 90 mins by LC-MS/MS analysis. Format: ADME, Microsome. The following applies: time 10-95 min. Background: Microsomes from liver hold many membrane-bound enzymes, among them those of drug oxidation.
Series [3] in a line: Metabolic stability in human liver microsomes assessed as clearance preincubated for 5 mins followed by NADPH addition measured for 5 to 90 mins by LC-MS/MS analysis. Format: ADME, Microsome. The following applies: time 10-95 min, read-out: CLH.
Series [4] has as its system HCT-116. Description: Antiproliferative activity against human HCT-116 cells. Format: functional, cell-based.
The subject of series [5] is HL-60. Briefly: Antiproliferative activity against human HL-60 cells. Format: functional, cell-based.
Series [6] has as its system MV4-11. Briefly: Induction of apoptosis in human MV4-11 cells incubated for 72 hrs by Annexin V-FITC/PI staining based flow cytometry. Format: functional, cell-based. As to conditions: dose 0.25-10 µM. (In general: In flow cytometry, cells or beads pass a laser one at a time.)
Series [7] relates to MV4-11. Description: Induction of apoptosis in human MV4-11 cells at 0.25 to 10 uM incubated for 72 hrs by Annexin V-FITC/PI staining based flow cytometry (reference value: 43.2 %). Format: functional. As to conditions: dose 0.25-10 µM; call rule not given here.
Series [8] is described as follows: Blood concentration elimination rate constant for the terminal phase in ICR mouse at 1 mg/kg, iv measured for 5 to 480 mins by LC-MS/MS analysis. Format: ADME, organism-based. As to conditions: time 5-480 min, read-out: LambdaZ (converted).
Series [9] can be described thus: Half life in ICR mouse at 1 mg/kg, iv measured for 5 to 480 mins by LC-MS/MS analysis. Format: ADME, organism-based. The following applies: in vivo, time 5-480 min.
Series [10] in a line: Tmax in ICR mouse at 1 mg/kg, iv measured for 5 to 480 mins by LC-MS/MS analysis. Format: ADME, organism-based. As to conditions: in vivo, time 5-480 min.
A short description of series [11]: Cmax in ICR mouse at 1 mg/kg, iv measured for 5 to 480 mins by LC-MS/MS analysis. Format: ADME, organism-based. The following applies: in vivo, time 5-480 min.
Series [12] can be described thus: AUC (0 to t) in ICR mouse at 1 mg/kg, iv measured for 5 to 480 mins by LC-MS/MS analysis. As to conditions: in vivo, time 5-480 min. Format: ADME, organism-based.
The nature of series [13]: AUC (0 to infinity) in ICR mouse at 1 mg/kg, iv measured for 5 to 480 mins by LC-MS/MS analysis. Format: ADME, organism-based. As to conditions: in vivo, time 5-480 min.
A short description of series [14]: MRT in ICR mouse at 1 mg/kg, iv measured for 5 to 480 mins by LC-MS/MS analysis. The following applies: in vivo, time 5-480 min. Format: ADME, organism-based.
Series [15] in a line: Clearance in ICR mouse at 1 mg/kg, iv measured for 5 to 480 mins by LC-MS/MS analysis. As to conditions: in vivo, time 5-480 min. Format: ADME, organism-based.
A short description of series [16]: Volume of distribution at steady state in ICR mouse at 1 mg/kg, iv measured for 5 to 480 mins by LC-MS/MS analysis. Format: ADME, organism-based. The following applies: in vivo, time 5-480 min.
Series [17] in a line: Blood concentration elimination rate constant for the terminal phase in ICR mouse at 10 mg/kg, po measured for 5 to 480 mins by LC-MS/MS analysis. Format: ADME, organism-based. As to conditions: time 5-480 min, read-out: LambdaZ (converted).
Series [18] is described as follows: Half life in ICR mouse at 10 mg/kg, po measured for 5 to 480 mins by LC-MS/MS analysis. Format: ADME, organism-based. As to conditions: in vivo, time 5-480 min.
Series [19] in a line: Tmax in ICR mouse at 10 mg/kg, po measured for 5 to 480 mins by LC-MS/MS analysis. Format: ADME, organism-based. As to conditions: in vivo, time 5-480 min.
A short description of series [20]: Cmax in ICR mouse at 10 mg/kg, po measured for 5 to 480 mins by LC-MS/MS analysis. Format: ADME, organism-based. As to conditions: in vivo, time 5-480 min.
A short description of series [21]: AUC (0 to t) in ICR mouse at 10 mg/kg, po measured for 5 to 480 mins by LC-MS/MS analysis. Format: ADME, organism-based. As to conditions: in vivo, time 5-480 min.
Series [22] is described as follows: AUC (0 to infinity) in ICR mouse at 10 mg/kg, po measured for 5 to 480 mins by LC-MS/MS analysis. Format: ADME, organism-based. The following applies: in vivo, time 5-480 min.
Series [23] can be described thus: MRT in ICR mouse at 10 mg/kg, po measured for 5 to 480 mins by LC-MS/MS analysis. As to conditions: in vivo, time 5-480 min. Format: ADME, organism-based.
Series [24] can be described thus: Clearance in ICR mouse at 10 mg/kg, po measured for 5 to 480 mins by LC-MS/MS analysis. Format: ADME, organism-based. As to conditions: in vivo, time 5-480 min.
Series [25] can be described thus: Oral bioavailability in ICR mouse at 10 mg/kg measured for 5 to 480 mins by LC-MS/MS analysis. Format: ADME, organism-based. As to conditions: in vivo, time 5-480 min.
A short description of series [26]: Drug uptake in ICR mouse plasma at 1 mg/kg, iv measured for 5 to 480 mins by LC-MS/MS analysis. The following applies: in vivo, time 5-480 min. Format: ADME, organism-based.
Series [27] is described as follows: Drug uptake in ICR mouse plasma at 10 mg/kg, po measured for 5 to 480 mins by LC-MS/MS analysis. Format: ADME, organism-based. As to conditions: in vivo, time 5-480 min.

pIC50: −log10 of the molar value.

The pIC50 is the IC50 on a negative log10 scale, so that one unit is a factor of ten. Low readings indicate a high IC50, high ones a low IC50. As a reminder, the half-life is how long it takes for the measured level to halve. In turn, `Cc1nnc2ccc(-c3nc4cnc(N5CCOCC5)cn4c3Nc3ccc(C(F)(F)F)cc3)cn12` gave a pIC50 in series [1] of 6.54. Also, the half-life in [2] is 2.56 h. In addition, the microsomal CLint in series [3] was 4.52 µL/min/mg.

As for `COc1ccc(Nc2c(-c3ccc4nnc(C)n4c3)nc3cnc(N4CCOCC4)cn23)cc1`, the results for the negative-log IC50 (pIC50) in [1] and in series [4] were 6.25 and 5.35, respectively.

Regarding `Cc1sc2c(c1C)C(c1ccc(Cl)cc1)=N[C@@H](CC(=O)OC(C)(C)C)c1nnc(C)n1-2`, the pIC50 in series [1] was 7.52; in [5], 5.50; in series [4] it was 5.57. The Activity entry in series [6] is “Dose-dependent-effect”.

With `Cc1nnc2ccc(-c3nc4cnc(-c5cnn(C)c5)cn4c3Nc3ccc(F)cc3)cn12`, the pIC50 is 5.31 in series [1] and 5.08 in series [5].

In the case of `CCc1nnc2ccc(-c3nc4cnc(N5CCN(C)CC5)cn4c3Nc3ccc(F)c(Cl)c3)cn12`, the pIC50 in series [1] is 6.13.

As usually defined, the Tmax is the time from dosing to the highest level. What is called Cmax is the peak of the concentration-time curve. By AUC(0-t) is commonly meant exposure summed from dosing to a finite time, without extrapolation to infinity. A low value points to less exposure. Usually AUC(0-inf) stands for the area under the concentration-time curve extrapolated to infinity. A low value points to less exposure. As a reminder, the MRT is the average time that molecules of a dose stay in the body. A word on the bioavailability: it is dose-corrected exposure relative to a reference, in per cent. A lower bioavailability goes with little systemic uptake. `CCc1nnc2ccc(-c3nc4cnc(-c5cnn(C)c5)cn4c3Nc3ccc(F)cc3Br)cn12` showed a negative logarithm of the IC50 (pIC50) in series [1] of 7.70. The figures for the Activity entry in [6] and in series [7] were “Dose-dependent-effect; Activity Was Better Than (+)-Jq1” and 83.2%, respectively. Further, the k el in [8] was 0.000181 s⁻¹; in [17], 9.72e-05 s⁻¹. Besides, the half-life in [9] was 1.06 h; in series [18], 2.26 h; in [2] it was 38.6 h. For the same molecule, the Tmax in [10] was 4.8 min; in series [19], 0.5 h. In addition, the values for the maximum concentration (Cmax) in series [11] and in series [20] were 4410 ng/mL and 5480 ng/mL, respectively. In addition, the AUC(0-t) came to 4640 ng·h/mL in [12] and 18300 ng·h/mL in [21]. Moreover, the figures for the AUC(0-inf) in series [13] and in [22] were 4660 ng·h/mL and 20900 ng·h/mL, respectively. The MRT in series [14] worked out at 1.32 h; in [23], 3.9 h. Moreover, the CL is on record as 2 10^-4(mg/kg)/(ng/ml)/hr in series [15] and 0.001 (mg/kg)/(ng/ml)/hr in series [24]. Further, in series [16], the Vdss was 3 10^-4(mg/kg)/(ng/ml). The same molecule returned a bioavailability in series [25] of 44.8%. The microsomal CLint in series [3] came to 0.3 µL/min/mg. Further, the Drug uptake entry in series [26] and in series [27] was “Active” each time.

Regarding `Cc1nnc2ccc(-c3nc4cnc(N5CCOCC5)cn4c3Nc3cccc(F)c3)cn12`, in series [1], the negative logarithm of the IC50 (pIC50) was 6.06.
